Biological target: TcdB (Clostridioides difficile, UniProt P18177)
Format: biochemical

Sequence of TcdB (P18177 2-2366 limits assumed): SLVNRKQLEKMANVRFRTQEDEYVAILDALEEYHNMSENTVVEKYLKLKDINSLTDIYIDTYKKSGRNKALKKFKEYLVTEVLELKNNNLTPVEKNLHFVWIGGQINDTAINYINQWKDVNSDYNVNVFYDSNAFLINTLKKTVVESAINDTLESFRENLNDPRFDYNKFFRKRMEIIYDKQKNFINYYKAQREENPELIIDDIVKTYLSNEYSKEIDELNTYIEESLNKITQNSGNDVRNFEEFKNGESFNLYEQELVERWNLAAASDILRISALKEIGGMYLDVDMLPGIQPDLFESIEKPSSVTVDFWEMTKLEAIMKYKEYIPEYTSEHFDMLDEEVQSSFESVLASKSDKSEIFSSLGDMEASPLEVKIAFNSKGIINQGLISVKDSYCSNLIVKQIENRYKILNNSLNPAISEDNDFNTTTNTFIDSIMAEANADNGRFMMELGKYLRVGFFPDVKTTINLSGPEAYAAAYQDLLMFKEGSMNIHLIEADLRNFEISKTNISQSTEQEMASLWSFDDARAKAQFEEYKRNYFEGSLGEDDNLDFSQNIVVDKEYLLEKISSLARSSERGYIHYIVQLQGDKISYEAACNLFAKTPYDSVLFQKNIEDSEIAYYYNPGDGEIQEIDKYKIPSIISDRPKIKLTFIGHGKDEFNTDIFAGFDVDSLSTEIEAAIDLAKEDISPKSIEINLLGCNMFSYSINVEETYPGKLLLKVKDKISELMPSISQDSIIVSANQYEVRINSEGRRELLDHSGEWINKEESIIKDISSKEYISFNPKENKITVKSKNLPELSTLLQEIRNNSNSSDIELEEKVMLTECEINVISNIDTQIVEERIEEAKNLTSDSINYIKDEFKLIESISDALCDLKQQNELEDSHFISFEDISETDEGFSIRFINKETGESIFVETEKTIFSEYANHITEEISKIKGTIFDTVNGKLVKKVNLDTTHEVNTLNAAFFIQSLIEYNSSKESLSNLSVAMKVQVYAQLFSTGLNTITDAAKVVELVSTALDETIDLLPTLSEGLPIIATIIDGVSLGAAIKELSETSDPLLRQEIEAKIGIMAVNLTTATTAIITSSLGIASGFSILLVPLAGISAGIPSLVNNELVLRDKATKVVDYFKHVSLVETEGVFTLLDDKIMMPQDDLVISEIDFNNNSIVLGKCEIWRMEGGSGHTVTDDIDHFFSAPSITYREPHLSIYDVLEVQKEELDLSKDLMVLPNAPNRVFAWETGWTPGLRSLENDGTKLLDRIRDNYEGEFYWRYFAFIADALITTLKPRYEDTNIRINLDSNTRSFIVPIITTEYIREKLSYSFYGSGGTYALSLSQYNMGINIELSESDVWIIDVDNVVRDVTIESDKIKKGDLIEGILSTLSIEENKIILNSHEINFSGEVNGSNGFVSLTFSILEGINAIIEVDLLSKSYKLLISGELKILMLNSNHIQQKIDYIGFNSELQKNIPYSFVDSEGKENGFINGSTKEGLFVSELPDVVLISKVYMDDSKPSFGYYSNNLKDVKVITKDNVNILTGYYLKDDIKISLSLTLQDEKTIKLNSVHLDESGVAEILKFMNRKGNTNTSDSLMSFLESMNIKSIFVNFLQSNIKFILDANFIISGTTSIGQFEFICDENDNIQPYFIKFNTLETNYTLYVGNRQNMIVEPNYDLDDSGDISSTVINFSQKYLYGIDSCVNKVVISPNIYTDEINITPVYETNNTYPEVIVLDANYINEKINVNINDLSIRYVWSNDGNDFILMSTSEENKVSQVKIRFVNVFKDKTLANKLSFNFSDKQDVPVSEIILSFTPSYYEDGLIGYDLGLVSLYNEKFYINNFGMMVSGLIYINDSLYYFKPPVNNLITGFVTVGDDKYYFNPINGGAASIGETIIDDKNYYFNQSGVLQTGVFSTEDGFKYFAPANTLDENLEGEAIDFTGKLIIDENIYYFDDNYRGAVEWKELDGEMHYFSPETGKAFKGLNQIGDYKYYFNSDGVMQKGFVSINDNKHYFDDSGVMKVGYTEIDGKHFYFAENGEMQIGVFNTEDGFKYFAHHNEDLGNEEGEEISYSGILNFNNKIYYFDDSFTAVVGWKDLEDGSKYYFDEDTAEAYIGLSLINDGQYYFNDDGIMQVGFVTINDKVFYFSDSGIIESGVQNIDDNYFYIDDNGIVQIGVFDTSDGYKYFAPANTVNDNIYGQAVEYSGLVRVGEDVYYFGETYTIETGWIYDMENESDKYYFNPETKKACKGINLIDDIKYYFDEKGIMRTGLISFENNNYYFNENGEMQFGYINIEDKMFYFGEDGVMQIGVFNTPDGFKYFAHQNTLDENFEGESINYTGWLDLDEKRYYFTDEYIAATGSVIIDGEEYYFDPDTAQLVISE

## O=P(O)(O)O[C@H]1[C@H](OP(=O)(O)O)[C@@H](OP(=O)(O)O)[C@H](OP(=O)(O)O)[C@@H](OP(=O)(O)O)[C@H]1OP(=O)(O)O [InsP6]
  InsP6-induced autocleavage, gel and immunoblot: Autocleavage of native TcdB versus E743A mutant with increasing InsP6 concentrations
